# According to PMC5218480 (PLoS ONE, 2017):
# Tested on: MV-4-11 cells
# Experiment: Gene expression microarray analysis (Affymetrix PrimeView) and GSEA
# Assay type: cell-based, human
# Design: RFU PODN (11730768_x_at) / Fold change /veh PODN (11730768_x_at) / RFU LINC00158 (11744669_a_at) / Fold change /veh LINC00158 (11744669_a_at) / RFU DUSP10 (11751237_a_at) / Fold change /veh DUSP10 (11751237_a_at) / RFU ID3 (11757404_x_at) / Fold change /veh ID3 (11757404_x_at) / RFU PLEKHG5 (11737974_s_at) / Fold change /veh PLEKHG5 (11737974_s_at) / RFU LRRC4B (11730491_at) / Fold change /veh LRRC4B (11730491_at) / RFU GIMAP4 (11747438_a_at) / Fold change /veh GIMAP4 (11747438_a_at) / RFU KRT8 (11758183_x_at) / Fold change /veh KRT8 (11758183_x_at) / RFU CNN1 (11734310_a_at) / Fold change /veh CNN1 (11734310_a_at) / RFU VPS37D (11726825_at) / Fold change /veh VPS37D (11726825_at) / RFU C10orf10 (11716522_x_at) / Fold change /veh C10orf10 (11716522_x_at) / RFU KIR2DL2 /// KIR2DL4 /// KIR2DL5A /// KIR2DL5B /// KIR2DS1 /// KIR2DS2 /// KIR2DS3 /// KIR2DS4 /// KIR3DL3 /// KIR3DL3 /// KIR3DS1 (11738374_at) / Fold change /veh KIR2DL2 /// KIR2DL4 /// KIR2DL5A /// KIR2DL5B /// KIR2DS1 /// KIR2DS2 /// KIR2DS3 /// KIR2DS4 /// KIR3DL3 /// KIR3DL3 /// KIR3DS1 (11738374_at) / RFU C1QL1 (11718748_at) / Fold change /veh C1QL1 (11718748_at) / RFU TMPRSS4 (11747572_a_at) / Fold change /veh TMPRSS4 (11747572_a_at) / RFU HAMP (11756126_x_at) / Fold change /veh HAMP (11756126_x_at) / RFU RNFT2 (11725882_a_at) / Fold change /veh RNFT2 (11725882_a_at) / RFU NR4A2 (11747474_a_at) / Fold change /veh NR4A2 (11747474_a_at) / RFU ABCC12 (11746883_a_at) / Fold change /veh ABCC12 (11746883_a_at) / RFU TMEM136 (11760407_x_at) / Fold change /veh TMEM136 (11760407_x_at) / RFU CLDN22 /// WWC2 (11732394_at) / Fold change /veh CLDN22 /// WWC2 (11732394_at) / RFU HLA-DPB1 (11760878_x_at) / Fold change /veh HLA-DPB1 (11760878_x_at) / RFU SPINT1 (11716480_a_at) / Fold change /veh SPINT1 (11716480_a_at) / RFU GAP43 (11754022_s_at) / Fold change /veh GAP43 (11754022_s_at) / RFU A4GNT (11735810_at) / Fold change /veh A4GNT (11735810_at) / RFU PRB3 (11715151_x_at) / Fold change /veh PRB3 (11715151_x_at) / RFU TUBB4B (11761932_at) / Fold change /veh TUBB4B (11761932_at) / RFU CAPN14 (11732068_a_at) / Fold change /veh CAPN14 (11732068_a_at) / RFU TMCC2 (11721928_a_at) / Fold change /veh TMCC2 (11721928_a_at) / RFU IRGQ (11745062_a_at) / Fold change /veh IRGQ (11745062_a_at) / RFU FAM174B (11720279_a_at) / Fold change /veh FAM174B (11720279_a_at) / RFU TMPRSS4 (11748680_a_at) / Fold change /veh TMPRSS4 (11748680_a_at) / RFU FAM212B (11763350_a_at) / Fold change /veh FAM212B (11763350_a_at) / RFU PLEKHG5 (11743358_a_at) / Fold change /veh PLEKHG5 (11743358_a_at) / RFU ZSCAN30 (11745921_a_at) / Fold change /veh ZSCAN30 (11745921_a_at) / RFU CMKLR1 (11741424_a_at) / Fold change /veh CMKLR1 (11741424_a_at) / RFU LOC101060620 /// MAPK8IP1 (11723275_at) / Fold change /veh LOC101060620 /// MAPK8IP1 (11723275_at) / RFU SPTSSB (11747773_x_at) / Fold change /veh SPTSSB (11747773_x_at) / RFU PRSS12 (11739890_at) / Fold change /veh PRSS12 (11739890_at) / RFU BIN1 (11741810_x_at) / Fold change /veh BIN1 (11741810_x_at) / RFU WNT11 (11732464_a_at) / Fold change /veh WNT11 (11732464_a_at) / RFU C10orf10 (11716521_a_at) / Fold change /veh C10orf10 (11716521_a_at) / RFU C5orf56 (11738089_at) / Fold change /veh C5orf56 (11738089_at) / RFU CYB561 (11721691_x_at) / Fold change /veh CYB561 (11721691_x_at) / RFU ANKRD19P (11752326_a_at) / Fold change /veh ANKRD19P (11752326_a_at) / RFU OR2T12 /// OR2T33 /// OR2T8 (11738714_s_at) / Fold change /veh OR2T12 /// OR2T33 /// OR2T8 (11738714_s_at) / RFU VCAN (11748164_a_at) / Fold change /veh VCAN (11748164_a_at) / RFU JSRP1 (11732532_at) / Fold change /veh JSRP1 (11732532_at) / RFU KRTAP10-11 (11738290_x_at) / Fold change /veh KRTAP10-11 (11738290_x_at) / RFU MYO3A (11730013_a_at) / Fold change /veh MYO3A (11730013_a_at) / RFU EBF3 (11725865_a_at) / Fold change /veh EBF3 (11725865_a_at) / RFU CAMK2N1 (11719241_x_at) / Fold change /veh CAMK2N1 (11719241_x_at) / RFU C5orf56 (11738088_a_at) / Fold change /veh C5orf56 (11738088_a_at) / RFU OLFML3 (11715873_a_at) / Fold change /veh OLFML3 (11715873_a_at) / RFU LOC100653217 /// NTM (11731650_a_at) / Fold change /veh LOC100653217 /// NTM (11731650_a_at) / RFU MAPK11 (11762145_a_at) / Fold change /veh MAPK11 (11762145_a_at) / RFU FIZ1 (11724087_x_at) / Fold change /veh FIZ1 (11724087_x_at) / RFU OASL (11726364_x_at) / Fold change /veh OASL (11726364_x_at) / RFU SOX15 (11748057_x_at) / Fold change /veh SOX15 (11748057_x_at) / RFU CD79A (11719716_a_at) / Fold change /veh CD79A (11719716_a_at) / RFU HIST1H1D (11736915_at) / Fold change /veh HIST1H1D (11736915_at) / RFU CASKIN2 (11723855_a_at) / Fold change /veh CASKIN2 (11723855_a_at) / RFU LOC730098 (11760151_x_at) / Fold change /veh LOC730098 (11760151_x_at) / RFU OR4N2 (11742367_at) / Fold change /veh OR4N2 (11742367_at) / RFU PRRT2 (11749266_a_at) / Fold change /veh PRRT2 (11749266_a_at) / RFU SNX32 (11753110_a_at) / Fold change /veh SNX32 (11753110_a_at) / RFU CDHR5 (11726645_a_at) / Fold change /veh CDHR5 (11726645_a_at) / RFU RCAN1 (11760418_a_at) / Fold change /veh RCAN1 (11760418_a_at) / RFU FAM167A (11723789_a_at) / Fold change /veh FAM167A (11723789_a_at) / RFU FAM26E (11764081_at) / Fold change /veh FAM26E (11764081_at) / RFU ISYNA1 (11749810_s_at) / Fold change /veh ISYNA1 (11749810_s_at) / RFU ACY1 (11761880_at) / Fold change /veh ACY1 (11761880_at) / RFU 11764098_at / Fold change /veh 11764098_at / RFU SAMD14 (11745864_x_at) / Fold change /veh SAMD14 (11745864_x_at) / RFU NPB (11741838_a_at) / Fold change /veh NPB (11741838_a_at) / RFU TMPRSS6 (11731388_a_at) / Fold change /veh TMPRSS6 (11731388_a_at) / RFU KRTAP10-2 (11738614_at) / Fold change /veh KRTAP10-2 (11738614_at) / RFU ARHGAP8 /// PRR5-ARHGAP8 (11727945_x_at) / Fold change /veh ARHGAP8 /// PRR5-ARHGAP8 (11727945_x_at) / RFU KRTAP5-7 /// NADSYN1 (11734609_at) / Fold change /veh KRTAP5-7 /// NADSYN1 (11734609_at) / RFU RASL12 (11751679_a_at) / Fold change /veh RASL12 (11751679_a_at) / RFU CDKN2B (11736163_a_at) / Fold change /veh CDKN2B (11736163_a_at) / RFU PRF1 (11729649_at) / Fold change /veh PRF1 (11729649_at) / RFU, ZNF638 /// ZNF638-IT1 / Fold change vs veh, ZNF638 /// ZNF638-IT1 / RFU, PANK3 / Fold change vs veh, PANK3 / RFU, SH3YL1 / Fold change vs veh, SH3YL1 / RFU, ZEB2 / Fold change vs veh, ZEB2 / RFU, NRIP1 / Fold change vs veh, NRIP1 / RFU, PTTG1IP / Fold change vs veh, PTTG1IP / RFU, CAPN2 / Fold change vs veh, CAPN2 / RFU, MED14 / Fold change vs veh, MED14 / RFU, SNORA58 / Fold change vs veh, SNORA58 / RFU, C1orf63 / Fold change vs veh, C1orf63 / RFU, LRRFIP1 / Fold change vs veh, LRRFIP1 / RFU, NDUFAF7 / Fold change vs veh, NDUFAF7 / RFU, SLC12A2 / Fold change vs veh, SLC12A2 / RFU, IBTK / Fold change vs veh, IBTK / RFU, ESF1 / Fold change vs veh, ESF1 / Fold change vs veh, TMEM50B / RFU, TAOK1 / Fold change vs veh, TAOK1 / RFU, ACBD3 / Fold change vs veh, ACBD3 / RFU, TMA16 / Fold change vs veh, TMA16 / RFU, RWDD3 / Fold change vs veh, RWDD3 / RFU, BCAT1 / Fold change vs veh, BCAT1 / RFU, EDEM3 / Fold change vs veh, EDEM3 / RFU, TMEM33 / Fold change vs veh, TMEM33 / RFU, WDR75 / Fold change vs veh, WDR75 / RFU, AHCTF1 / Fold change vs veh, AHCTF1 / RFU, TFRC / Fold change vs veh, TFRC / RFU, ZDHHC17 / Fold change vs veh, ZDHHC17 / RFU, NOM1 / Fold change vs veh, NOM1 / RFU, ARL8B / Fold change vs veh, ARL8B / RFU, ZBTB11 / Fold change vs veh, ZBTB11 / RFU, TAMM41 / Fold change vs veh, TAMM41 / RFU, KIAA1704 /// LOC100996395 / Fold change vs veh, KIAA1704 /// LOC100996395 / RFU, ING1 / Fold change vs veh, ING1 / RFU, TRMT61B / Fold change vs veh, TRMT61B / RFU, FUBP3 / Fold change vs veh, FUBP3 / RFU, TP53 / Fold change vs veh, TP53 / RFU, TNKS2 / Fold change vs veh, TNKS2 / RFU, ZFP14 / Fold change vs veh, ZFP14 / RFU, ACTR2 / Fold change vs veh, ACTR2 / RFU, PPP3R1 / Fold change vs veh, PPP3R1 / RFU, PIK3R1 / Fold change vs veh, PIK3R1 / RFU, HNRNPA1 / Fold change vs veh, HNRNPA1 / RFU, RNF170 / Fold change vs veh, RNF170 / RFU, ZNF28 / Fold change vs veh, ZNF28 / RFU, RNGTT / Fold change vs veh, RNGTT / RFU, OGT / Fold change vs veh, OGT / RFU, BRD1 / Fold change vs veh, BRD1 / RFU, MARS / Fold change vs veh, MARS / RFU, ZNF655 / Fold change vs veh, ZNF655 / RFU, FAHD1 / Fold change vs veh, FAHD1 / RFU, BDP1 / Fold change vs veh, BDP1 / RFU, LRRCC1 / Fold change vs veh, LRRCC1 / RFU, ARID1A / Fold change vs veh, ARID1A / RFU, ZNF146 / Fold change vs veh, ZNF146 / RFU, ZNF330 / Fold change vs veh, ZNF330 / RFU, GPN3 / Fold change vs veh, GPN3 / RFU, C9orf123 / Fold change vs veh, C9orf123 / RFU, N4BP2L2 / Fold change vs veh, N4BP2L2 / RFU, ARFIP1 / Fold change vs veh, ARFIP1 / RFU, FAM179B / Fold change vs veh, FAM179B / RFU, BCL10 / Fold change vs veh, BCL10 / RFU, UHRF1BP1L / Fold change vs veh, UHRF1BP1L / RFU, BET1 / Fold change vs veh, BET1 / RFU, CNOT2 / Fold change vs veh, CNOT2 / RFU, ZNF268 / Fold change vs veh, ZNF268 / Fold change vs veh, ZNF507 / RFU, DGCR2 / Fold change vs veh, DGCR2 / RFU, WDSUB1 / Fold change vs veh, WDSUB1 / Fold change vs veh, HSP90B1 /// MIR3652 / RFU, ADSS / Fold change vs veh, ADSS / RFU, GK / Fold change vs veh, GK / RFU, ZNF148 / Fold change vs veh, ZNF148 / RFU, TAF9 / Fold change vs veh, TAF9 / RFU, SLC1A5 / Fold change vs veh, SLC1A5 / RFU, SLMO2 / Fold change vs veh, SLMO2 / RFU, ABCC4 / Fold change vs veh, ABCC4 / RFU, LOC101060439 /// RAP1B / Fold change vs veh, LOC101060439 /// RAP1B / RFU, RFX7 / Fold change vs veh, RFX7 / RFU, GTPBP10 / Fold change vs veh, GTPBP10 / RFU, CNEP1R1 / Fold change vs veh, CNEP1R1 / RFU, BIVM-ERCC5 /// ERCC5 / Fold change vs veh, BIVM-ERCC5 /// ERCC5 / RFU, ILF3 / Fold change vs veh, ILF3 / RFU 11762660_at / Fold change /veh 11762660_at / RFU VCAN (11757783_s_at) / Fold change /veh VCAN (11757783_s_at) / RFU DDX43 (11728927_at) / Fold change /veh DDX43 (11728927_at) / RFU KRT8 (11758188_x_at) / Fold change /veh KRT8 (11758188_x_at) / RFU NKD1 (11759106_at) / Fold change /veh NKD1 (11759106_at) / RFU SRD5A1 (11742802_a_at) / Fold change /veh SRD5A1 (11742802_a_at) / RFU TPSAB1 /// TPSB2 (11721975_s_at) / Fold change /veh TPSAB1 /// TPSB2 (11721975_s_at) / RFU GSTM3 (11746129_a_at) / Fold change /veh GSTM3 (11746129_a_at) / RFU IL23R (11737362_x_at) / Fold change /veh IL23R (11737362_x_at) / RFU TMEM51 (11727254_a_at) / Fold change /veh TMEM51 (11727254_a_at) / RFU PIWIL2 (11732686_x_at) / Fold change /veh PIWIL2 (11732686_x_at) / RFU ORM1 (11744905_x_at) / Fold change /veh ORM1 (11744905_x_at) / RFU CCDC152 (11743942_at) / Fold change /veh CCDC152 (11743942_at) / RFU ECM1 (11717891_a_at) / Fold change /veh ECM1 (11717891_a_at) / RFU IL23R (11748794_a_at) / Fold change /veh IL23R (11748794_a_at) / RFU TNFAIP8L3 (11732012_x_at) / Fold change /veh TNFAIP8L3 (11732012_x_at) / RFU MBOAT4 (11741988_at) / Fold change /veh MBOAT4 (11741988_at) / RFU 11764193_at / Fold change /veh 11764193_at / RFU TMEM53 (11763286_at) / Fold change /veh TMEM53 (11763286_at) / RFU MAGEB2 (11727129_at) / Fold change /veh MAGEB2 (11727129_at) / RFU TMEM200A (11744735_a_at) / Fold change /veh TMEM200A (11744735_a_at) / RFU CCDC152 (11751479_a_at) / Fold change /veh CCDC152 (11751479_a_at) / RFU FAM211A (11726209_a_at) / Fold change /veh FAM211A (11726209_a_at) / RFU RGS16 (11746705_a_at) / Fold change /veh RGS16 (11746705_a_at) / RFU VCAN (11755009_s_at) / Fold change /veh VCAN (11755009_s_at) / RFU RHOB (11743442_s_at) / Fold change /veh RHOB (11743442_s_at) / RFU RGS16 (11720943_a_at) / Fold change /veh RGS16 (11720943_a_at) / RFU RGS16 (11720944_at) / Fold change /veh RGS16 (11720944_at) / RFU, VPS4B / Fold change vs veh, VPS4B / RFU, CREB1 / Fold change vs veh, CREB1 / RFU, DNAJC13 / Fold change vs veh, DNAJC13 / RFU, GNAQ / Fold change vs veh, GNAQ / RFU, CDK5R1 / Fold change vs veh, CDK5R1 / RFU, ZRANB3 / Fold change vs veh, ZRANB3 / RFU, CUL4A / Fold change vs veh, CUL4A / RFU, CCNY / Fold change vs veh, CCNY / RFU, UFL1 / Fold change vs veh, UFL1 / RFU, COG3 / Fold change vs veh, COG3 / RFU, DIAPH2 / Fold change vs veh, DIAPH2 / RFU, SKA2 / Fold change vs veh, SKA2 / RFU, AFF3 / Fold change vs veh, AFF3 / RFU, LMF1 / Fold change vs veh, LMF1 / RFU, IPO11 / Fold change vs veh, IPO11 / RFU, DFFB / Fold change vs veh, DFFB / RFU, FOXP1 / Fold change vs veh, FOXP1 / RFU, CARD8 / Fold change vs veh, CARD8 / RFU, STRN3 / Fold change vs veh, STRN3 / RFU, ADK / Fold change vs veh, ADK / RFU, RASSF2 / Fold change vs veh, RASSF2 / RFU, WIPF1 / Fold change vs veh, WIPF1 / RFU, LARP1B / Fold change vs veh, LARP1B / RFU, RASA1 / Fold change vs veh, RASA1 / RFU, RB1 / Fold change vs veh, RB1 / RFU, PPFIA1 / Fold change vs veh, PPFIA1 / RFU, MAT2A / Fold change vs veh, MAT2A / RFU, CCT5 / Fold change vs veh, CCT5 / RFU, WDR92 / Fold change vs veh, WDR92 / RFU, CUX1 / Fold change vs veh, CUX1 / RFU, TTC7A / Fold change vs veh, TTC7A / RFU, TMEM135 / Fold change vs veh, TMEM135 / RFU, DEPTOR / Fold change vs veh, DEPTOR / RFU, CPM / Fold change vs veh, CPM / RFU, DNAJB6 / Fold change vs veh, DNAJB6 / RFU, CACNA2D3 / Fold change vs veh, CACNA2D3 / RFU, DTX4 / Fold change vs veh, DTX4 / RFU, TFCP2 / Fold change vs veh, TFCP2 / RFU, GMCL1 /// GMCL1P1 / Fold change vs veh, GMCL1 /// GMCL1P1 / RFU, AEBP2 / Fold change vs veh, AEBP2 / RFU, SNHG1 /// SNORD22 /// SNORD25 /// SNORD26 /// SNORD27 /// SNORD28 /// SNORD29 /// SNORD31 / Fold change vs veh, SNHG1 /// SNORD22 /// SNORD25 /// SNORD26 /// SNORD27 /// SNORD28 /// SNORD29 /// SNORD31 / Fold change (Aza/veh), C12orf56 (ProbeSet 11735607_a_at) / Fold change (ACY-1035/veh), C12orf56 (ProbeSet 11735607_a_at) / Fold change (Aza/veh), FGFR1OP (ProbeSet 11751329_s_at) / Fold change (ACY-1035/veh), FGFR1OP (ProbeSet 11751329_s_at) / Fold change (Aza/veh), VPS36 (ProbeSet 11739960_a_at) / Fold change (ACY-1035/veh), VPS36 (ProbeSet 11739960_a_at) / RFU SYPL1 (11715823_x_at) / Fold change /veh SYPL1 (11715823_x_at) / RFU IGFBP7 (11715501_s_at) / Fold change /veh IGFBP7 (11715501_s_at) / RFU REEP3 (11722064_at) / Fold change /veh REEP3 (11722064_at) / RFU IGLL1 (11728026_x_at) / Fold change /veh IGLL1 (11728026_x_at): dose or concentration left out as unconfirmed
# Conditions: MV-4-11 cells, 48 hours
structure (smiles),measurement,value
Nc1ncn([C@@H]2O[C@H](CO)[C@@H](O)[C@H]2O)c(=O)n1 [azacitidine],RFU PRF1 (11729649_at),19.15 RFU
